Test systems include HS 578T breast; UACC-257 melanoma; SK-MEL-28 melanoma; SNB-75 CNS; SN12C renal; M14 melanoma; OVCAR-3 ovarian; NCI-H226 lung; HCT-116 colon; HT29 colon.
What all share (experiment): NCI tumour cell line growth inhibition, 48 h

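Growth conditions: 96-well plates. Treatment: test compound, 48 hours, 5 concentrations. Analysis: linear interpolation between bracketing concentrations; unreached endpoints set to highest concentration. The concentration for 50% growth inhibition is given as GI50. TGI denotes the concentration required for complete inhibition of growth.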 Some results are limits rather than exact numbers.

Take `O=c1oc2ccc(I)cc2c(=O)n1-c1ccc(Br)cc1F`: the GI50 with HS 578T breast was 0.345 µM; in the experiment on UACC-257 melanoma, 0.735 µM; with SK-MEL-28 melanoma, 0.404 µM; in the experiment on SNB-75 CNS, 0.374 µM; in the experiment with SN12C renal, 0.546 µM; with M14 melanoma, 0.725 µM. Moreover, the GI50 in the experiment with OVCAR-3 ovarian is 0.511 µM; in the experiment on NCI-H226 lung it was 1.27 µM; with HCT-116 colon it was 0.621 µM; with HT29 colon it was 3.3 µM. Besides, the TGI in the experiment with HS 578T breast amounted to 3.14 µM; in the experiment with UACC-257 melanoma, 5.02 µM; in the experiment with SK-MEL-28 melanoma, 2.03 µM; with SNB-75 CNS it was 2.48 µM; in the experiment with SN12C renal it was 5.7 µM; in the experiment on M14 melanoma it was 4.99 µM. The TGI in the experiment with OVCAR-3 ovarian came to 8.89 µM; in the experiment with NCI-H226 lung it was 4.39 µM; in the experiment with HCT-116 colon it was 2.38 µM; in the experiment on HT29 colon it was 13.5 µM.

Consider `COc1cc2c(cc1OC(C)C)[C@H](c1ccc(Cl)cc1)N(c1ccc(N(C)CC3CCC(N4CCN(C)C(=O)C4)CC3)cc1)C(=O)C2` (some centres not stated), for which the GI50 in the experiment on HS 578T breast is 3.48 µM; in the experiment on UACC-257 melanoma, 1.4 µM; in the experiment with SK-MEL-28 melanoma, 2 µM; in the experiment on SNB-75 CNS, 2.95 µM; in the experiment on SN12C renal, 2.95 µM; with M14 melanoma it was 2.72 µM. Further, the GI50 in the experiment on OVCAR-3 ovarian is 2.6 µM; in the experiment on NCI-H226 lung, 0.311 µM; with HCT-116 colon, 0.447 µM; with HT29 colon, 2.7 µM. In addition, the TGI with HS 578T breast turned out to be 13.1 µM; in the experiment on UACC-257 melanoma, 6.92 µM; in the experiment on SK-MEL-28 melanoma, 4.29 µM; with SNB-75 CNS, 8.68 µM; in the experiment with SN12C renal, 9.15 µM; with M14 melanoma, 7.86 µM. Besides, the TGI in the experiment with OVCAR-3 ovarian came to 7.07 µM; in the experiment on NCI-H226 lung it was 1.7 µM; with HCT-116 colon it was 2.48 µM; in the experiment on HT29 colon, 7.79 µM.

Take `CN(Cc1ccccc1)Cn1ccnc1`: the TGI in the experiment with HS 578T breast is > 100 µM; with UACC-257 melanoma, 47.4 µM; with SK-MEL-28 melanoma it was > 68 µM; with SNB-75 CNS, > 100 µM; in the experiment on SN12C renal, > 100 µM; in the experiment with M14 melanoma, 39.6 µM. The TGI in the experiment on OVCAR-3 ovarian, in the experiment on NCI-H226 lung, in the experiment with HCT-116 colon and with HT29 colon was > 100 µM in each case.

For the compound `CNC(=O)c1ccc(N2C(=S)N(c3cnc(C#N)c(C(F)(F)F)c3)C(=O)C23CCC3)cc1F`, the GI50 in the experiment with HS 578T breast was > 100 µM; in the experiment on UACC-257 melanoma, > 95 µM; in the experiment with SK-MEL-28 melanoma, > 100 µM; with SNB-75 CNS, > 100 µM; with SN12C renal, > 100 µM; in the experiment on M14 melanoma, > 100 µM. Also, the GI50 with OVCAR-3 ovarian was > 100 µM; in the experiment on NCI-H226 lung, > 100 µM; with HCT-116 colon, > 95.4 µM; in the experiment with HT29 colon, > 100 µM. In addition, the TGI in the experiment on HS 578T breast, with UACC-257 melanoma, in the experiment on SK-MEL-28 melanoma, with SNB-75 CNS, with SN12C renal and in the experiment on M14 melanoma was > 100 µM each time. In addition, the TGI in the experiment on OVCAR-3 ovarian, with NCI-H226 lung, with HCT-116 colon and in the experiment with HT29 colon was > 100 µM each time.

`Cc1onc(-c2ccccc2)c1C(=O)N/N=C/c1cc(Cl)cc(Cl)c1O`: the GI50 is 17.8 µM with HS 578T breast; 3.47 µM in the experiment with UACC-257 melanoma; 6.51 µM in the experiment on SK-MEL-28 melanoma; 6.75 µM in the experiment on SNB-75 CNS; 4.58 µM in the experiment on SN12C renal; 3.74 µM in the experiment with M14 melanoma. Also, the GI50 in the experiment with OVCAR-3 ovarian was 3.82 µM; in the experiment with NCI-H226 lung it was 8.47 µM; with HCT-116 colon it was 4.11 µM; in the experiment with HT29 colon, 8.63 µM. The TGI in the experiment with HS 578T breast is > 100 µM; with UACC-257 melanoma it was 27.3 µM; with SK-MEL-28 melanoma, > 100 µM; in the experiment on SNB-75 CNS, > 100 µM; in the experiment with SN12C renal it was 60.5 µM; in the experiment with M14 melanoma it was 46.3 µM. In addition, the TGI with OVCAR-3 ovarian was 26.6 µM; in the experiment on NCI-H226 lung, 72.7 µM; with HCT-116 colon, > 100 µM; in the experiment on HT29 colon, 58.7 µM.

`COc1ccc(C2(Cl)c3ccccc3N(c3ccccc3)c3ccccc32)cc1`: the GI50 was 0.407 µM in the experiment with HS 578T breast; 0.797 µM with UACC-257 melanoma; 0.222 µM with SK-MEL-28 melanoma; 0.359 µM in the experiment on SNB-75 CNS; 0.232 µM with SN12C renal; 0.224 µM in the experiment on M14 melanoma. Moreover, the GI50 with OVCAR-3 ovarian is 0.307 µM; with NCI-H226 lung, 1.01 µM; with HT29 colon, 0.306 µM. For the same compound, the TGI was determined as 17.2 µM in the experiment on HS 578T breast; 3.67 µM in the experiment with UACC-257 melanoma; 1.49 µM in the experiment on SK-MEL-28 melanoma; 2.05 µM with SNB-75 CNS; 1.22 µM in the experiment with SN12C renal; 1.38 µM in the experiment on M14 melanoma. Moreover, the TGI with OVCAR-3 ovarian was 1.47 µM; with NCI-H226 lung, 3.55 µM; with HT29 colon it was 2.3 µM.

Regarding `Cc1cc2nc(NCCN)n(Cc3ccc(F)c(Cl)c3)c2cc1C`, the GI50 was 11.8 µM with HS 578T breast; 2.47 µM in the experiment with SK-MEL-28 melanoma; 10.6 µM in the experiment on SNB-75 CNS; 15.1 µM in the experiment on SN12C renal; 2.52 µM in the experiment on M14 melanoma; 12.8 µM in the experiment with OVCAR-3 ovarian. Also, the GI50 with NCI-H226 lung was 19.8 µM; with HCT-116 colon it was 2.29 µM; with HT29 colon, 11.7 µM. For the same compound, the TGI was 28.2 µM in the experiment with HS 578T breast; 6.63 µM with SK-MEL-28 melanoma; 23.4 µM in the experiment with SNB-75 CNS; 29.8 µM in the experiment with SN12C renal; 7.07 µM in the experiment with M14 melanoma; 27 µM in the experiment on OVCAR-3 ovarian. The TGI with NCI-H226 lung is 39.7 µM; with HCT-116 colon it was 4.7 µM; in the experiment with HT29 colon, 24.5 µM.

Consider `OC(CNc1ccnc2cc(Cl)ccc12)CNc1ccnc2cc(Cl)ccc12`, for which the GI50 is 1.97 µM in the experiment with HS 578T breast; 1.87 µM with UACC-257 melanoma; 1.5 µM with SNB-75 CNS; 1.89 µM in the experiment with SN12C renal; 1.73 µM in the experiment with M14 melanoma; 1.81 µM with OVCAR-3 ovarian. The GI50 in the experiment on NCI-H226 lung was 2.98 µM; in the experiment with HCT-116 colon, 1.72 µM. Also, the TGI in the experiment with HS 578T breast turned out to be 4.16 µM; in the experiment on UACC-257 melanoma, 3.49 µM; with SNB-75 CNS, 3.03 µM; in the experiment with SN12C renal, 3.7 µM; in the experiment on M14 melanoma it was 3.18 µM; with OVCAR-3 ovarian, 3.42 µM. Besides, the TGI in the experiment on NCI-H226 lung worked out at 9.3 µM; in the experiment with HCT-116 colon, 3.09 µM.
